Results as given in patent publication US8912144B2, “Method for treating stroke via administration of NEP1-40 and inosine” (Children's Medical Center Corporation, priority 2003, dated 2014).
“Also recorded” adds a separate entry of the source.

Key:
Format in all cases: in vivo, rat
[1] = Skilled forelimb-reaching (food pellet retrieval) task after stroke; conditions: for food pellet retrieval with impaired paw, % of baseline: long-term study
Experimental: All procedures were carried out in accordance with NIH Guidelines with the approval of Children's Hospital Animal Care and Use Committee. Unilateral in-farcts were induced in the sensorimotor cortex of adult Sprague-Dawley rats (275-300 g; Charles River Laboratories, Wilmington, Mass.) using the photothrombotic model of focal ischemia (Markgraf et al., 1993). Briefly, rats were anesthetized with a combination of ketamine (75 mg/kg) and Domitor (medetomidine; 0.5 mg/kg) and a 15 mm skin incision was made at the midline rostral to the posterior suture. A craniotomy was performed over the sensorimotor cortex using a hand-held drill to open a window that spanned medio-laterally between the sagittal sinus and temporal ridge, and rostro-caudally between Bregma +2.5 mm and Bregma −3.5 mm. The photosensitive dye Rose Bengal was injected into the femoral vein, and a fiber-optic cable connected to a xenon light source was centered over the craniotomy, focusing light directly on the exposed region of the brain for 30 minutes. A green filter fitted over the bulb restricted illumination to ˜525 nm, a wavelength that excites Rose Bengal and causes it to release free radical species. The subsequent damage to endothelial cells in exposed portions of the cortical vasculature causes platelet aggregation, resulting in severe focal ischemia. […] Control animals were generated using the same surgical procedure but without photo-activation of Rose Bengal. Animals with strokes were randomly assigned to receive a continuous infusion of either saline (0.9%, Baxter Scientific; n=12), inosine (50 mM in saline, Sigma-Aldrich Co., St. Louis, Mo.; n=12), NEP1-40 (500 μM in 2.5% DMSO/97.5% saline; n=12), or inosine +NEP1-40 (n=12) into the cisterna magna using osmotic minipumps (0.25 μl/h, Alzet model 2004, Durect Corpora-tion, Palo Alto, Calif.). In addition to these, a separate set of animals with the same 4 groups (n=12 in each) was created for a long-term behavioral study. Because CSF drug concentrations presumably require several hours to achieve steady-state levels when delivered via slow-releasing osmotic pumps, all animals received a 25 μl intraventricular bolus of the appropriate agent prior to pump placement. Pumps were tucked between the shoulder blades and infusion needles were secured onto the cranium with a silicon-based glue. The incision was closed with silk sutures and cleaned with betadine and ethanol pads. For 72 hours following surgery, animals received twice-daily, subcu-taneous injections of Buprenex (buprenorphine; Reckitt Benkiser Pharmaceuticals Inc., Richmond, Va.) for pain management.
In animals in which both behavioral testing and anatomical tracing was performed, animals were tested at 7, 14, 21, and 28 days after surgery, whereas in the long-term behavioral study, minipumps were removed after 4 weeks and testing was continued weekly for another 4 weeks. All testing was done by an experimenter blind to the animals' treatments. A skilled forelimb-reaching task was used to test functional recovery after stroke. The task requires the rat to reach with either paw through a narrow slit in a Plexiglas box, grasp a banana-flavored food pellet (Bio-Serv, Inc., Frenchtown, N.J.) from a platform, and bring it successfully to the mouth (Allred and Jones, 2004; Luke et al., 2004). Three days prior to and during training, animals were maintained on a restricted diet of banana-flavored pellets to remove novelty-induced hesitation and to increase motivation. Rats were trained 30-60 minutes per day with each paw for two weeks or until they reached a baseline performance of 20-30 successful reaches in a two-minute period. At the end of the training period but prior to surgery, each animal was tested for the number of pellets it successfully grasped and ate in a two-minute trial, making certain that animals were motivated and stress-free. […]

[2] = Horizontal (irregular) ladder walk after dorsal hemisection of the spinal cord; conditions: i.c.v. (50 mM, 0.25 μl/hour) or i.v. (260 mM, 10 μl/hour) for 4 weeks
Experimental: To test the effects of inosine on spinal cord injury, the dorsal half of the spinal cord in rats was transected, severing the descending CST and other pathways. CST loss severely disrupted fine, skilled behaviors. Inosine was then administered either intra-cerebroventricularly (50 mM, 0.25 μl/hour) or intravenously (260 mM, 10 μl/hour) for 4 weeks. […] Complete transection of the corticospinal tract was verified histologically. The effectiveness of inosine was clinically relevant, since it avoids the risk of intracerebral infection.

[3] = tested on: corticospinal tract (CST) axons; test: BDA tracing of CST axons in sham-operated animals (no brain injury); conditions: sham surgery, 4 weeks treatment
Experimental: In groups treated for four weeks after stroke, animals were re-anesthetized, the infusion needle and pump were removed, and a craniotomy was performed over the uninjured SMA. The anterograde tracer bioti-nylated dextran amine (BDA: Molecular Probes: 10% wt/vol in sterile saline) was injected stereotaxically at depths of 0.5, 1.0, and 2.0 mm below the cortical surface at 18 standardized points distributed over the sensorimotor cortex (70 nl per injection; Nano-ject, Drummond Scientific, Broomall, Pa.). Two weeks later, animals were anesthetized and perfused transcardially with 0.9% saline followed by 4% paraformaldehyde. The brain and spinal cord were dissected and post-fixed overnight in 4% paraformaldehyde, followed by 10% and 30% sucrose solutions over the next few days. Tissue was em-bedded in OCT Tissue Tek Medium (Sakura Finetek USA Inc., CA) and frozen on dry ice. […] Six to ten sections spanning a distance of 1.2 mm were examined and quantified for (a) BDA-labeled axon profiles ≧40 μm in length within the dorsal funiculus on the denervated side of the spinal cord (ipsilateral to the BDA injection and contralateral to the injury); (b) BDA+axons≧40 μm in length in the gray matter of the denervated side of the spinal cord, and (c) BDA+axons≧200 μm in length on the denervated side. […] Average numbers of axons were calculated and converted to axons per mm of spinal cord. […]

SMILES: OC[C@H]1O[C@@H](n2cnc3c(O)ncnc32)[C@H](O)[C@@H]1O [inosine]
- food pellet retrieval with impaired paw, outcome in words ([1]; 4-week study): superior to that of controls at 1 week
- food pellet retrieval with impaired paw, outcome in words ([1]; eight-week (long-term) study): significantly better than that of saline-treated controls from week 2 on
- food pellet retrieval with impaired paw, outcome in words ([1]; eight-week (long-term) study, listed as Inosine): strongly enhanced the effect of NEP1-40
- food pellet retrieval with impaired paw, % of baseline ([1]; week eight (4 weeks after pump removal)): ~80%
- food pellet retrieval with impaired paw, % of baseline ([1]; week four): ~70%
- performance with the unaffected (unimpaired) paw ([1]; paw ipsilateral to the stroke): performed normally; also recorded: No differences were detected
- food pellet retrieval with impaired paw, percentage of baseline (pre-operative) level ([1]; week 4 after stroke, 4-week study): approximately 80%
- performance on horizontal ladder walk [2]: enhanced performance; also recorded: far superior to saline-treated controls
- labeled CST axons in spinal grey matter ipsilateral to the labeled hemisphere [3]: 77.5±9.0 axons/mm
